# Experimental data published in patent publication US5364944A, “Substituted benzoylbenzene-, biphenyl- and 2-oxazole- alkanoic acid compounds” (American Home Products Corporation, priority 1993, dated 1994).
# Experiments:
# [1] = system: biosynthesis of LTB4 by isolated human neutrophils; experiment: Inhibition of LTB4 biosynthesis by isolated human neutrophils (PMN); format: cell-based; conditions: A23187 stimulated human PMN; for inhibition at 2.5 µM: Neutrophil, read-out: % Inhibition of LTB4 Synthesis
# Description: The ability of the compounds of the invention to inhibit the biosynthesis of LTB4 by isolated human neutrophils is evaluated in the following assay, which is carried out in this manner.
# A leukocyte enriched blood sample obtained from a healthy donor is procured by leukophoresis using a Haemonetics model 30+ blood processor (Biological Specialties, Inc., Lansdale, Pa.). The top "platelet-rich" layer is removed after a low speed spin (35×g, 15 min, 25° C.) of the sample. The remaining cell suspension is centrigued (400×g, 10 min, 25° C.) to sediment the remaining cells. The supernatant is discarded and the cell pellet resuspended in 120 ml HBSS (without Ca^++ /Mg++). The cell suspension is subjected to ficoll-hypaque sedimentation (Histopaque 1077, 400×g, 30 min, 25° C.). Contaminating erythrocytes are lysed by hypotonic shock (1 min). The cells are then washed once with 40 ml of HBSS and resuspended with HBS S (without Ca^++ /Mg^++) to a concentration of 2.5×10^7 cells/ml for further use. Greater than 95% purity is obtained as assessed by microscopic examination.
# One ml of human PMN (2.5×10^7 cells/ml) is incubated with vehicle or drugs (10 μl) for 10 min at 30° C. After preincubation, an equal volume of HBSS (1 ml) containing 2.4 mM CaCl2, 6 μM calcium ionophore A23187 and 50 μCi[^3 H]-acetate is then incubated at 30° C. for 15 minutes. An aliquot (100 μl) of the reaction mixture is taken out and mixed with 900 μl of 15% ethanol. LTB4 is extracted by using solid phase extraction on reverse phase C18 columns to remove excess [^3 H]-acetate and PAF. The C18 column is prewashed once with 2 ml of ethanol and water. The sample aliquot is acidified with 0.1 N HCl to pH3 before applying to the column. The column is then washed with 2 ml of water followed by 2 ml of 15% ethanol and 2 ml of petroleum ether to remove excess labeled acetate. The sample is eluted with 2 ml of ethyl acetate. The collected samples are dried with nitrogen and resuspended in 0.5 ml RIA buffer. The quantity of LTB4 in the sample is obtained from RIA determination.
# Data presented are the mean +/- s.d. of the values relative to control A23187 stimulated cells for each experiment assayed in triplicate. Percent inhibition when used is calculated as:
# % Inhibition=100-[(×.div.Control )×100]
# Dose response analysis is performed by non-linear regression analysis for curve fitting and IC50 determination.
# [2] = system: LTB4; experiment: Reverse passive Arthus pleurisy assay, inflammatory mediator release: LTB4; format: in vivo, rat (male Lewis); conditions: standard drugs
# Description: (§1) The compounds of the invention are further tested in the reverse passive Arthus pleurisy assay to evaluate their effectiveness in inflammatory mediator release and/or the fluid and cellular phases of an inflammatory response.
# (§2) This assay is carried out as follows:
# A reverse passive Arthus reaction is induced in the pleural cavity of male Lewis rats (150-200 g; fasted overnight prior to use) by the intravenous administration of bovine serum albumin (BSA; 4 mg/0.2 ml) followed 30 minutes later by the injection of rabbit anti-BSA (1 mg/0.2 ml; lyophilized IgG fraction; Organon Teknika, West Chester, Pa.) into the right pleural space under halothane anesthesia. […] Animals are sacrificed at either the time of peak eicosanoid production (i.e. 5 minutes after anti-BSA for immunoreactive TxB2 10 minutes for immunoreactive LTB4, 20 minutes for immunoreactive LTC4) or at the time of peak neutrophil infiltration (4 hours after anti-BSA) by CO2 inhalation. The pleural cavity is then exposed, the fluid exudate removed by gentle vacuum aspiration and the volume of exudate is recorded. For the determination of cellular infiltration, the pleural cavity is rinsed with 3 ml of 0.1% EDTA in sterile saline, and the recovered wash is pooled with the exudate. Cell number is determined on a model ZBI Coulter counter. For determination of eicosanoid production, undiluted pleural exudate is microfuged and the supernatant is extracted with ethanol (8-10 times volume). Extracts are either stored at -20° C., or are evaporated to dryness under a stream of N2 and reconstituted in radioimmunoassay (RIA) buffer.
# Eicosanoids are quantitated by RIA according to the procedure specified by the RIA kit manufacturer (Advanced Magnetics, Cambridge, Mass.). Briefly, 100 μl of ^3 H-labeled eicosanoid and 100 μl of specific antibody are sequentially added to 100 μl of extracted pleural exudate in BGG -phosphate buffer which contains 0.01 M phosphate, 0.1% bovine gamma globulin and 0.1% sodium azide at pH 7.0. Antibody-bound eicosanoid is separated from unbound eicosanoid by the addition of 750 μl of dextran (0.4%)-coated charcoal (0.4% Norit A) containing 0.1% sodium azide. The mixture is centrifuged at 2000 RPM at 5° C. for 15 minutes to pellet the charcoal and adsorbed unbound eicosanoid. Antibody-bound labeled eicosanoid is quantitated by counting in a liquid scintillation counter, and is correlated to concentration by a standard curve.
# (§3) Inflammatory cells are expressed as 10^6 cells/ml, pleural exudate is expressed as ml of fluid, and the amount of eicosanoids in the pleural cavity is expressed as ng/ml of exudate. Mean ±S.E.M. is determined for each group. Percent inhibition (% I) of cell number, exudate volume and eicosanoid production is calculated for vehicle-treated control groups, and the responses in drug-treated rats are then expressed as the mean % I of the control. […] Exp. Ther., 96, 99-113 (1949).
# [3] = system: TxB2; experiment: Reverse passive Arthus pleurisy assay, inflammatory mediator release: TxB2; format: in vivo, rat (male Lewis); conditions: standard drugs; for ED50 TxB2: p.o., inflammatory mediator release, 5 min
# Description: as §1, §2
# A reverse passive Arthus reaction is induced in the pleural cavity of male Lewis rats (150-200 g; fasted overnight prior to use) by the intravenous administration of bovine serum albumin (BSA; 4 mg/0.2 ml) followed 30 minutes later by the injection of rabbit anti-BSA (1 mg/0.2 ml; lyophilized IgG fraction; Organon Teknika, West Chester, Pa.) into the right pleural space under halothane anesthesia. Drugs or vehicle (0.5% Tween-80) control are administered orally in a volume of 1 ml/100 g body weight at 1 hour prior to the anti-BSA. Animals are sacrificed at either the time of peak eicosanoid production (i.e. 5 minutes after anti-BSA for immunoreactive TxB2 10 minutes for immunoreactive LTB4, 20 minutes for immunoreactive LTC4) or at the time of peak neutrophil infiltration (4 hours after anti-BSA) by CO2 inhalation. The pleural cavity is then exposed, the fluid exudate removed by gentle vacuum aspiration and the volume of exudate is recorded. […] Cell number is determined on a model ZBI Coulter counter. […]
# Eicosanoids are quantitated by RIA according to the procedure specified by the RIA kit manufacturer (Advanced Magnetics, Cambridge, Mass.). […] Antibody-bound labeled eicosanoid is quantitated by counting in a liquid scintillation counter, and is correlated to concentration by a standard curve.
# Inflammatory cells are expressed as 10^6 cells/ml, pleural exudate is expressed as ml of fluid, and the amount of eicosanoids in the pleural cavity is expressed as ng/ml of exudate. Mean ±S.E.M. is determined for each group. Percent inhibition (% I) of cell number, exudate volume and eicosanoid production is calculated for vehicle-treated control groups, and the responses in drug-treated rats are then expressed as the mean % I of the control. […]
# [4] = system: synthesis of the arachidonic acid cyclooxygenase oxidation product PGE2 (rat PMN); experiment: Inhibition of cyclooxygenase product PGE2 synthesis by rat PMN; format: cell-based; conditions: negative values denote a potentiation of cyclooxygenase
# Description: In this assay, the procedure of Example 41 is carried out as described. However, in order to determine cyclooxygenase activity, the samples are cochromatographed with authentic reference [^3 H]-PGE2.
# [5] = system: 5-lipoxygenase in human whole blood; experiment: Inhibition of 5-lipoxygenase in human whole blood (LTB4); format: cell-based
# Description: The assay of this Example measures the ability of the compounds tested to inhibit 5-lipoxygenase in human whole blood.
# as §2
# Blood is obtained in 50-100 ml quantities from male donors. White blood cell counts and differentials are made. Two ml of blood are placed in a 15 ml polypropylene test tube. Compounds are solubilized in dimethylsulfoxide and diluted 1:10 in 10% bovine serum albumin in phosphate buffered saline, pH 7.4 resulting in a final dimethylsulfoxide concentration of 0.1% in the blood. Then, compounds are added to the blood in a shaking water bath at 37° C. for 10 minutes prior to the addition of 30 μM calcium ionophore (A23187; Sigma). After ionophore administration, whole blood samples are mixed and incubated for 20 minutes at […] in a shaking water bath. Incubation is terminated by placing samples in an ice bath and immediately adding ethylene glycol-bis-(β-aminoethyl ether)-N,N,N',N'-tetraacetic acid (10 mM). Samples are mixed and centrifuged at 1200×g for 15 minutes at 4° C. Preparation of samples for evaluation by RIA or ELISA is carried out by the following protocol. Plasma is removed from sample tubes, placed in 15 ml polypropylene test tubes containing 8 ml methanol, and then vortexed to precipitate protein. Samples are stored at -70° C. overnight. The next day, samples are centrifuged at 200×g for 15 minutes at 4° C. to pellet the precipitate. Samples are dried in a Savant speed vac concentrator, reconstituted to original volume with ice cold RIA or ELISA buffer, and stored at -70° C. until assayed. The assay for eicosanoids (LTB4, TxB2, and PGE2) is performed as described by the manufacturer of the [^3 H]-RIA kit or ELISA kit (LTB4 -Amersham, TxB2 and PGE2 - Caymen Chemical).
# The total eicosanoid level in 2 ml of blood is calculated and reported as ng/10^6 neutrophils. […] Drug effects are expressed as percent change from control values.
# Compounds tested in vitro are solubilized in dimethylsulfoxide and diluted 1:10 in 10% bovine serum albumin in phosphate buffer saline resulting in a final dimethylsulfoxide concentration of 0.1% in the blood.
# [6] = system: fluid and cellular phases of an inflammatory response; experiment: Reverse passive Arthus pleurisy assay, pleural inflammation (fluid exudation, cellular influx); format: in vivo, rat (male Lewis); conditions: standard drugs
# Description: as §1, §2
# A reverse passive Arthus reaction is induced in the pleural cavity of male Lewis rats (150-200 g; fasted overnight prior to use) by the intravenous administration of bovine serum albumin (BSA; 4 mg/0.2 ml) followed 30 minutes later by the injection of rabbit anti-BSA (1 mg/0.2 ml; lyophilized IgG fraction; Organon Teknika, West Chester, Pa.) into the right pleural space under halothane anesthesia. Drugs or vehicle (0.5% Tween-80) control are administered orally in a volume of 1 ml/100 g body weight at 1 hour prior to the anti-BSA. Animals are sacrificed at either the time of peak eicosanoid production (i.e. 5 minutes after anti-BSA for immunoreactive TxB2 10 minutes for immunoreactive LTB4, 20 minutes for immunoreactive LTC4) or at the time of peak neutrophil infiltration (4 hours after anti-BSA) by CO2 inhalation. The pleural cavity is then exposed, the fluid exudate removed by gentle vacuum aspiration and the volume of exudate is recorded. For the determination of cellular infiltration, the pleural cavity is rinsed with 3 ml of 0.1% EDTA in sterile saline, and the recovered wash is pooled with the exudate. Cell number is determined on a model ZBI Coulter counter. For determination of eicosanoid production, undiluted pleural exudate is microfuged and the supernatant is extracted with ethanol (8-10 times volume). Extracts are either stored at -20° C., or are evaporated to dryness under a stream of N2 and reconstituted in radioimmunoassay (RIA) buffer.
# as §3
smiles,measurement,setting,value
"CC(c1cc2ccccc2s1)N(O)C(N)=O (stereo not drawn) [A-64,077, reference compound]",inhibition at 2.5 µM,[1],75.8%
"CN=C1CCN(c2cccc(C(F)(F)F)c2)N1 [BW540C, reference compound]",ED50 LTB4,"[2]; p.o., inflammatory mediator release, 10 min",30 mg/kg
same,ED50 TxB2,[3],19 mg/kg
"O=C(O)Cc1cccc(C(=O)c2ccc(OCc3ccc4ccccc4n3)cc2)c1 [Example 3, 3-[4-(2-Quinolinylmethoxy)benzoyl]benzene acetic acid]",inhibition at 0.5 µM,[4]; at 0.5 μM,-8%
same,inhibition at 10 µM,[4]; at 10 μM,8%
"O=C(O)Cc1ccc(-c2ccc(OCc3nc4ccccc4s3)cc2)cc1 [Example 12, 4'-(Benzothiazolylmethoxyl)-4-diphenylacetic acid]",% Inhibition of LTB4 Synthesis,[1]; at 2.5 μM,Inactive
"CN(O)C(=O)Cc1ccc(-c2ccc(OCc3nc4ccccc4s3)cc2)cc1 [Example 13, 4'-(Benzothiazolylmethoxy)-4-diphenyl-N-hydroxy-N-methyl-acetamide]",inhibition at 2.5 µM,[1],98.9%
CC(C(=O)N(C)O)c1ccc(-c2ccc(OCc3nc4ccccc4n3C)cc2)cc1 (stereo not drawn) [Example 23],IC50,[5],11.9 µM
same,% Inhibition of LTB4,[5]; at 25 μM,32%
same,inhibition at 2.5 µM,[1],99%
COc1ccc2cc([C@H](C)C(=O)O)ccc2c1 [Naproxen],% Inh LTB4,[2]; 4 mg/kg p.o.,0%
same,ED50 TxB2,[3],0.24 mg/kg
same,% Inh Cellular Influx,[6]; 8 mg/kg p.o.,29%
same,ED30 Fluid Exudation,"[6]; p.o., pleural inflammation",3.9 mg/kg
"C[C@H](C(=O)O)c1ccc2cc(OCc3ccc4ccccc4n3)ccc2c1.NC(CO)(CO)CO [Wy-50,295-A]",% Inh TxB2,[3]; 75 mg/kg p.o.,0%
